“Also recorded” adds a separate entry of the source.

One assay has as its system MMC. As to conditions: dog; cited from earlier work.
Assay [1] concerns fundic tone / gastric accommodation. The assay is described as follows: Animal model of fundic accommodation (Method E, barostat, milk meal). Format: in vivo, Beagle dogs. The procedure:
Fundic accommodation in response to a 200 mL milk meal was measured using a barostat. This can be considered as a model for functional dyspepsia, at least some occurrences of which is known to be a result of poor gastric accommodation (Tack, J.; Piessevaux, H.; Coulie, B.; Caenepeel, P.; Janssens, J. Gastroenterology 1998, 115, 1346-1352; DiStefano, M.; Micelli, E.; Mazzocchi, S.; Tana, P.; Corazza, G. R. Eur. Rev. Med. Pharmacol. Sci. 2005, 9, 23-28; Kindt, S.; Tack, J. Gut 2006, 55, 1685-1691; van den Elzen, B. D.; Boeckxstaens, G. E. Aliment. Pharmacol. Ther. 2006, 23, 1499-1510.). The described method is based upon a literature method. (Meulemans A. Schuurkes J. Neurogastroenterol. Motil. 1995, 7, 151-155.) The use of gallbladder volume has been linked to the motilin effect in functional dyspepsia and also can be used as a biomarker to test the effect of an antagonist on FD in humans. (Kamerling, I. M. C.; Van Haarst, A. D.; De Kam, M. L.; Cohen, A. F.; Masclee, A. A. M.; Burggraaf, J. Aliment, Pharmacol. Ther. 2004, 19, 797-804.) Other methods can also be utilized for this assessment and have been reviewed. (DeSchepper, H. U.; Cremonini, F.,; Chitkara, D.; Camilleri, M. Neurogastroenterol. Motil. 2004, 16, 275-285.) The dog is often used as an appropriate model for GI diseases due to the similarity in the alimentary tracts between dogs and humans. Additionally, the dog motilin receptor has been identified and characterized with the expression profile determined. It shares 71% homology to the human receptor and 72% to the rabbit receptor. (Ohshiro, H.; Nonaka, M.; Ichikawa, K. Regul. Pept. 2008, 146, 80-87.)
Beagle dogs were trained to stand quietly in Pavlov frames. Each was implanted using the following procedure with a gastric and duodenal cannula under general anesthesia with standard aseptic precautions. After a medium laparotomy, an incision was made through the gastric wall in the longitudinal direction between the greater and the lesser curvature, 2 cm above the nerves of Latarjet. The gastric cannula (diameter 18 mm) was secured to the gastric wall by means of an appropriate suture and then brought out via a stab wound at the left quadrant of the hypochondrium. The duodenal cannula (diameter 4 mm) was implanted at about 12 cm distal to the pylorum. An incision of approximately 1 cm was made through the duodenal wall 3 cm distally from the site of implantation. The cannula was brought into the duodenum though this incision. The top of the cannula was brought out of the duodenal wall at the place of implantation and secured to the wall via suture. Afterwards, the duodenum was closed and the duodenal cannula was brought out via a stab wound at the right quadrant of the hypochondrium. Dogs were allowed a recovery period of 2 weeks during which they were treated with antibiotics.
Variations in gastric tone were measured by recording changes in the volume of air within an intragastric bag maintained at constant pressure (6 mm Hg) by a barostat. The barostat consists of an air injection system which is connected by a double-lumen polyvinyl tube to an ultrathin flaccid polyethylene bag with maximum volume of approximately 700 mL. Gastric tonic contractions cause the barostat to withdraw air to maintain the pressure, while relaxation triggers air injection to maintain pressure. In that manner, intrabag volume is an inverse measure of proximal gastric tone. Differences in gastric tone were recorded using a computer. […]

In assay [2] the test system is migrating motor complex (MMC). Nature of the assay: Strain gauge animal model (Method F): migrating motor complex in fasted dogs. Format: in vivo, beagle dogs. As to conditions: for effect on the migrating motor complex (MMC): fasted beagle dogs. As to the method:
(§1) Gastrointestinal motility was measured for 24 hours by telemetry in freely moving beagle dogs instrumented with strain gauges on both the antrum and duodenum. The method utilized for the strain gauges was based upon that in the literature. (Edelbroek, M.; Schuurkes, J.; De Ridder, W.; Horowitz, M.; Dent, J.; Akkermans, L. Dig. Dis. Sci. 1995, 40, 901-911; Briejer, M. R.; Prins, N. H.; Schuurkes, J. A. Neurogastroenterol. Motil. 2001 13, 465-472.) Analogous methods that can be used are known. (Dog: Itohb, Z.; Honda, R.; Takeuchi, S.; Aizawa, I.; Takayanagi, R. Gastroenterol. Jpn. 1977, 12, 275-283; Iwai, T.; Nakamura, H.; Takanashi, H.; et al. Can. J. Physiol. Pharmacol. 1998, 76, 1103-1109; Dog and guinea pig, Ohno, T.; Kamiyama, Y.; Aihara, R.; Nakabayashi, T.; Mochiki, E.; Asao, T.; Kuwano, H. Neurogastroenterol. Motil. 2006, 18, 129-135; Rat: Bunce, K. T.; Elswood, C. J.; Ball, M. T. Br. J. Pharmacol. 1991, 102, 811-816; Guinea pig: Cooke, H. J.; Wang, Y. Z.; Frieling, T.; Wood, J. D. Am. J. Physiol. 1991, 261, G833-G840.)
Calibrated strain gauges (Schuurkes, J. A. J.; Van der Schee, E. J.; Grashuis, J. L.; Charbon, G. R. A. in Gastrointestinal Motility in Health and Disease; Duthie, H. L., Ed., MTP Press, Lancaster (UK), 1978, pp 647-654) and bipolar extracellular electrodes were implanted under aseptic conditions in each of four female beagle dogs. (Bass, P.; Wiley, J. N. J. Appl. Physiol. 1972, 32, 567-570.) The strain gauges were sutured onto the seromuscular layer parallel to the axis of the circular muscle, on the distal antrum (3 cm orad to the distal pyloric loop), proximal duodenum (3 cm and 6 cm aborad to the pylorus) and distal pyloric muscle loop. The bipolar extracellular electrodes were implanted onto the scrosal side of the distal antrum and proximal duodenum 2 cm orad and aborad to the pylorus. The lead wires were brought out via a subcutaneous tunnel in the left costal flank through a stab wound between the scapulae. Postsurgically, the lead wires were soldered to the connectors and protected appropriately.
In the same surgical incision, a gastrostomy and duodenostomy were performed. The gastrostomy was situated anteriorly in the midventral region between the lesser and greater curvature 2 cm orad to the nerve of Latarget and kept patent with a stainless steel cannula (internal diameter 1.4 cm, length 7.0 cm). The duodenostomy was situated 10 cm aborad to the pylorus and was kept patent with a cannula of smaller diameter (internal diameter 0.9 cm, length 7.5 cm). A thin tubing (outer diameter 2.2 mm) was pulled across the pylorus and attached to the caps of the gastric and duodenal cannulae in order to facilitate placement of the manometric assembly postsurgically. The greater omentum was wrapped around the cannulae to secure positioning and then the cannulae were tightly capped between experiments to permit normal feeding. Dogs were allowed to recover for at least two weeks prior to conduct of any experiments.
Intraluminal pressures were recorded with a manometric assembly incorporating a sleeve sensor with a 4.8 cm length (outer diameter 5.4 mm) to monitor pyloric pressure waves. (Dent, J. Gastroenterology 1976, 71, 263-267.) Four side holes were spaced at 1.6-cm intervals along the sleeve length. Side holes at each end of the sleeve were used to measure antral and duodenal pressures and transmucosal potential difference (TMPD) simultaneously. (Arndorfer, R. C.; Stef, J. J.; Doss, W. J.; Linehan, J. H.; Hogan, W. J. Gastroenterol. 1977, 73, 23-27.) Two additional side holes were placed 3.3 and 1.6 cm orad to the proximal end of the sleeve (antral sites) and another two side holes were placed 1.6 and 3.3 cm aborad to the distal end of the sleeve (duodenal sites). All channels were perfused with degassed distilled water at 0.3 mL/min, except for the side holes used to measure the antroduodenal TMPD, which were perfused with saline. […]

The subject of assay [3] is post-prandial gastrointestinal activity. The assay is described as follows: Strain gauge animal model (Method F): post-prandial gastrointestinal activity in fed dogs. In kind it is in vivo, beagle dogs. As to the method:
as §1, with “G833-G840.) […]” for “G833-G840.)”
Intraluminal pressures were recorded with a manometric assembly incorporating a sleeve sensor with a 4.8 cm length (outer diameter 5.4 mm) to monitor pyloric pressure waves. […]

In the case of `Cc1[nH]cnc1CN1CCc2c(c3ccccc3n2C)C1=O` [Alosetron], the “effect on the MMC” value in the assay on MMC was “block the MMC”.
As for `CC(C)[C@H]1NC(=O)[C@@H](Cc2cccc(C(F)(F)F)c2)NCCOc2ccccc2CCCNC(=O)[C@H](CN(C)C)NC1=O` [Compound 502], in assay [1] (0.30 mg/kg i.v. bolus, continuous motilin infusion), the “gastric accommodation in response to the meal” value is “improved gastric accommodation”. Further, in assay [1] (0.30 mg/kg i.v., exogenous motilin 0.010 mg/kg/h i.v.), the “effect on motilin-induced fundic contraction” value is listed as “antagonized the effects of exogenous motilin; also recorded: antagonized the fundic contraction induced by infusion of exogenous motilin”. Also, the “AUC of fundic relaxation (0-to-5 min.)” value in assay [1] (0.30 mg/kg i.v., motilin infusion 0.010 mg/kg/h i.v., milk meal, vehicle 18.7±3.3, n=4, p<0.05) is 27.3 ± 3.5 mL/h. Further, the “natural relaxation of the stomach in response to a meal (baseline, no motilin)” value in assay [1] (0.1, 0.3 and 1.0 mg/kg, i.v., preliminary experiment) is “did not disturb this baseline phenomenon”. Besides, the “motilin-induced increase in fundic tone, dose dependence” value in assay [1] (FIG. 3, cross-over design, N=6 dogs) is reported as “prevented this increase in a dose-dependent manner”. The “effect on the migrating motor complex (MMC)” value is recorded as “lesser delay of MMCs” in assay [2] (0.30 mg/kg, i.v.) and “delay the migrating motor complex (MMC)” in assay [2] (1 mg/kg, i.v., N=6). Also, the “contraction amplitude (CA), % of baseline CA” value in assay [2] (1.0 mg/kg i.v., after 4 h) was 52±21%; in assay [2] (1.0 mg/kg i.v., over the first hour), 5±2%. Besides, the “time to first MMC” value in assay [2] (1.0 mg/kg i.v., controls 99±15 min, P<0.01, n=4, mean±SEM) was found to be 225 ± 31 min. Besides, the “phase III activity of the MMC” value in assay [2] (0.10, 0.30, 1.0 mg/kg, i.v., after overnight fast) is “suppressed the regular occurrence of phase III activity of the MMC in a dose-dependent manner”. Besides, the “time until CA returned to baseline levels” value in assay [2] (0.10 and 0.30 mg/kg doses, n=2) worked out at 3 h. In addition, the “post-prandial CA, % of pre-drug baseline” value in assay [3] (0.30 mg/kg i.v., 2 h after standard 75 g meal, during first hour, n=2, vehicle 106±10%) is recorded as 58±4%. Besides, in assay [3] (0.30 mg/kg, i.v., fed dogs), the post-prandial activity result is given as “briefly attenuate post-prandial activity”.
